≈ marks a conversion by molar mass, not a printed value.
What was measured:
Format in all cases: in vivo
[1] = system: 2nd-instar larvae of Plutella xylostella; test: whole plant or invertebrate; settings: Plutella xylostella; single pesticide, 0.5 mg/L; 72 hours; read-out: Measured mortality rate
Method: (§1) Test target: 2nd-instar larvae of Plutella xylostella.
(§2) Preparation of the pesticide solution: according to different test requirements, the test samples were accurately weighed respectively with an electronic analytical balance. The technical pesticides were dissolved in acetone, and then diluted with 0.1% Tween 80 water into a series of pesticide solutions with a certain concentration gradient according to the experimental design dosage.
(§3) Experimental method: first, cabbage leaves were selected and dipped in the prepared pesticide solution for 10 s in the order from low dosage to high dosage according to the experimental design. After natural air-drying in the shade, they were placed in a 9-cm-diameter Petri dish with filter paper, and uniform and healthy test insects were introduced, with 10 insects for each treatment and 3 replicates for each treatment. In addition, a blank control (CK) was set up.
(§4) The treated test materials were placed in an observation room, and the temperature, humidity and illumination of the observation room could be adjusted as needed. The number of dead and alive insects was investigated 72 hours later, and the corrected mortality rate was calculated using the Abbott's formula.
The synergism of the mixture was evaluated by the Bliss method. According to the concept of independent joint action he proposed, Bliss believes that the theoretical mortality rate P when insecticides are used in combination can be calculated by the following formula: […]
Pm is the measured mortality rate (%) of the target when the first active ingredient is at a concentration of m; and Pn is the measured mortality rate (%) of the target when the second active ingredient is used at a concentration of n.
If the actual mortality rate of the target after the two active ingredients are mixed at a certain concentration is greater than theoretical mortality rate P, it is determined that the two active ingredients have a synergistic effect when used in combination at the set concentration, and otherwise, they have an antagonistic effect.

[2] = system: Aphis gossypii Glover nymphs; test: Joint toxicity of I-72 + spiropidion, Example 28, Table 28; settings: Aphis gossypii; A = compound I-72, B = spiropidion; cotton leaf spraying; 48 hours; read-out: LC50
Method: Test target: Aphis gossypii Glover nymphs, a sensitive strain reared indoors.
as §2
Experimental method: first, cotton leaves with uniform and consistent Aphis gossypii were selected, with about 30-40 insects on each leaf. Then, they were evenly sprayed with the pesticide solution in the order from low dosage to high dosage according to the experimental design, with 1.5 mL for each leaf and 3 replicates for each treatment. In addition, a blank control was set up.
(§5) The treated test materials were placed in an observation room, and the temperature, humidity and illumination of the observation room could be adjusted as needed. The number of dead and live insects was investigated 48 hours later. […] Then, the co-toxicity coefficient of each ratio was calculated using the Sun Y-P method to evaluate the mixing effect (the same as in Example 1).

Empoasca pirisuga = test: Field efficacy trial of I-72 and Beauveria bassiana in a tea garden, Example 88, Table 88; settings: spraying
Method: This trial was performed in a tea garden in Yuhang District, Hangzhou. The spraying method was used for pesticide application. The investigation method was to take samples at 5 points, with 2 fixed plants at each point. A total of 10 plants were investigated in each plot, and the trial was replicated four times. The number of Empoasca vitis nymphs on the back of 100 tender leaves in each plot was randomly investigated. The amount of the pesticide solution sprayed was 75 L per mu. The base number was investigated before the pesticide application, and the number of live Empoasca pirisuga in each treatment sample point was investigated 3, 7 and 14 days after the pesticide application. The calculation method for the efficacy of the test pesticides was the same as that in Example 38.
Test pesticides: A: wettable powder of Beauveria bassiana with 40 billion spores/gram (Jiangxi Tianren Ecology Co., Ltd.); and B: compound I-72 (dissolved in acetone, 0.1% Tween 80 was added, and a 10% stock solution was prepared for use).

[3] = system: 2nd-instar larvae of Plutella xylostella; test: Joint toxicity of I-72 + tetraniliprole, Example 58, Table 58; settings: Plutella xylostella, foliar; A = compound I-72, B = tetraniliprole; cabbage leaf dipping; 72 hours; read-out: LC50
Method: as §1, §2
as §3, with “control” for “control (CK)”
as §5, with “72” for “48”

[4] = system: Unaspis yanonensis Kuwana nymphs; test: whole plant or invertebrate; settings: foliar, A = compound I-72, B = spirotetramat, citrus leaf dipping, 120 hours, read-out: LC50
Method: Test target: Unaspis yanonensis Kuwana nymphs.
as §2
Experimental method: the activity of the mixture against Unaspis yanonensis Kuwana nymphs on citrus was determined by adopting the dipping method. First, the collected citrus leaves with Unaspis yanonensis Kuwana nymphs were treated with the pesticide solution in the order from low dosage to high dosage according to the experimental design. After air-drying, the petioles were kept moist with degreased cotton, and then the leaves were placed in a Petri dish, with 3 replicates for each treatment. In addition, a blank control was set up.
The treated test materials were placed in an observation room, and the temperature, humidity and illumination of the observation room could be adjusted as needed. The number of dead and live insects was investigated 120 hours later.

[5] = system: 3rd-instar larvae of Ostrinia furnacalis Guenee; test: Synergism screening (Bliss) of I-72 + ecdysteroid and juvenile hormone insecticides, Example 51, Table 51; settings: Ostrinia furnacalis; single pesticide, 2 mg/L; 72 hours; read-out: Measured mortality rate
Method: Test target: 3rd-instar larvae of Ostrinia furnacalis Guenee.
as §2
as §3, with “tender corn stems” for “cabbage leaves”
as §4
The synergism of the mixture was evaluated by adopting the Bliss method, as in Example 5.

SMILES: CN(C(=O)c1ccc2c(c1)OC(F)(F)O2)c1cccc(C(=O)Nc2c(Br)cc(C(F)(C(F)(F)F)C(F)(F)F)cc2OC(F)F)c1F [Compound I-72]
- mortality at 0.5 µg/mL [1]: 80%
- LC50 [2]: 3.19 µg/mL
- Control efficacy 3 days after pesticide application (Empoasca pirisuga; dose 15 ml): 57.0%
- Control efficacy 7 days after pesticide application (Empoasca pirisuga; dose 15 ml): 75.8%
- Control efficacy 14 days after pesticide application (Empoasca pirisuga; dose 15 ml): 74.2%
- Control efficacy 3 days after pesticide application (Empoasca pirisuga; dose 30 ml): 57.5%
- Control efficacy 7 days after pesticide application (Empoasca pirisuga; dose 30 ml): 77.7%
- Control efficacy 14 days after pesticide application (Empoasca pirisuga; dose 30 ml): 79.3%
- Control efficacy 3 days after pesticide application (Empoasca pirisuga; dose 45 ml): 62.5%
- Control efficacy 7 days after pesticide application (Empoasca pirisuga; dose 45 ml): 78.1%
- Control efficacy 14 days after pesticide application (Empoasca pirisuga; dose 45 ml): 78.9%
- LC50 [3]: 0.0888 µg/mL
- LC50 [4]: 75.2 µg/mL (≈ 101 µM)
- mortality at 2 µg/mL [5]: 75.9%
